Read-outs that look alike come from different tables or passages of the source.
How the values were obtained:
[1] = cited from earlier work
[2] = test system: oxidative stress-induced ototoxicity and nephrotoxicity; conditions: in vivo; cited from earlier work
[3] = male, Sprague-Dawley, rat, in vivo, 150 mg/kg
Procedure: Twenty-six male Sprague-Dawley rats weighing approximately 200 to 300 g were used for the study. The jugular vein of six animals were cannulated and the rest of the animals were used without any further preparation.
Dosing was conducted on two occasions. […] The drug was prepared in a suspension formulation in accordance with the present invention. The blood samples (approximately 0.5 mL/sample) were collected from each animal at predose, 15, 30 minutes, 1, 2, 4 and 6 hours postdose into microtainer tubes containing lithium heparin as an anticoagulant. Replacement blood was infused into each animal following each blood draw. […] The drug was prepared in a solution formulation. […] Blood samples were collected from each animal via the orbital sinus at predose, 2, 15, 30 minutes, 1, 2, 4 and 6 hours postdose. Each animal was bled twice. The blood was centrifuged immediately and the resulting plasma in tubes was flash frozen in liquid nitrogen and stored at approximately −70° C. until analysis.
L-Methinione can also be detected under the same HPLC conditions.
Descriptive pharmacokinetic parameters were determined by standard model independent methods (Gibaldi, M. and Perrier, D. Pharmacokinetics, Second Edition, Marcel Dekker, Inc., New York, 1982) based on the mean plasma concentration-time data. The plasma concentrations were rounded to one decimal place before the calculation. Plasma samples with concentrations below the quantifiable limit (BQL) were assigned values of zero for the calculation of mean plasma concentration.
The mean plasma concentration-time profiles are depicted in FIG. 2.

Question: For `CSCC[C@H](N)C(=O)O` [L-Methionine, L-methionine], which “dosage reported safe for chronic administration” value ([1]; adult) is on record?
Answer: Its value is 20 g/day.

Question: What about the “side-effects in human studies” value ([1]; most human studies) of the same compound?
Answer: The value was “no side-effects”.

Question: And the “effect on oxidative stress-induced ototoxicity and nephrotoxicity associated with cisplatin” value [2]?
Answer: Its value is “effectively prevent”.

Question: What about the “AUC(0-inf) of L-Methionine” value ([3]; iv) of the same compound?
Answer: The value was 326.0 µg·h/mL.

Question: What about the “Cmax of L-Methionine” value ([3]; iv) of the same compound?
Answer: Its value is 161700 ng/mL.

Question: And the “T1/2 (half-life) of L-Methionine” value ([3]; iv)?
Answer: Its value is 1.9 h.

Question: And the “Tmax of L-Methionine” value ([3]; iv)?
Answer: The value was 0.50 h.

Question: And the “Mean Plasma Concentrations of L-Methionine” value (“Mean Plasma Concentrations” below) ([3]; iv, 0 h)?
Answer: Its value is 132.6 ng/mL.

Question: What about the “Mean Plasma Concentrations” value ([3]; iv, 0.03 h) of the same compound?
Answer: Its value is 132.6 ng/mL.

Question: What about the “Mean Plasma Concentrations” value ([3]; iv, 0.25 h) of the same compound?
Answer: Its value is 146.5 ng/mL.

Question: What about the “Mean Plasma Concentrations” value ([3]; iv, 0.5 h) of the same compound?
Answer: Its value is 161.7 ng/mL.

Question: What about the “Mean Plasma Concentrations” value ([3]; iv, 1 h) of the same compound?
Answer: Its value is 76.1 ng/mL.

Question: What about the “Mean Plasma Concentrations” value ([3]; iv, 2 h) of the same compound?
Answer: The value was 45.4 ng/mL.

Question: And the “Mean Plasma Concentrations” value ([3]; iv, 4 h)?
Answer: Its value is 23.2 ng/mL.

Question: And the “Mean Plasma Concentrations” value ([3]; iv, 6 h)?
Answer: The value was 10.7 ng/mL.

Question: What about the “AUC(0-inf) of L-Methionine” value ([3]; po) of the same compound?
Answer: The value was 450.2 µg·h/mL.

Question: What about the “Cmax of L-Methionine” value ([3]; po) of the same compound?
Answer: Its value is 47200 ng/mL.

Question: And the “T1/2 (half-life) of L-Methionine” value ([3]; po)?
Answer: The value was 9.9 h.

Question: And the “Tmax of L-Methionine” value ([3]; po)?
Answer: Its value is 2.00 h.

Question: What about the “Mean Plasma Concentrations” value ([3]; po, 0 h) of the same compound?
Answer: The value was 7.8 ng/mL.

Question: What about the “Mean Plasma Concentrations” value ([3]; po, 0.5 h) of the same compound?
Answer: Its value is 33.1 ng/mL.

Question: And the “Mean Plasma Concentrations” value ([3]; po, 1 h)?
Answer: The value was 32.0 ng/mL.

Question: And the “Mean Plasma Concentrations” value ([3]; po, 2 h)?
Answer: Its value is 47.2 ng/mL.

Question: And the “Mean Plasma Concentrations” value ([3]; po, 4 h)?
Answer: The value was 22.2 ng/mL.

Question: And the “Mean Plasma Concentrations” value ([3]; po, 6 h)?
Answer: Its value is 18.8 ng/mL.

Question: What about the “Mean Plasma Concentrations” value ([3]; po, 12 h) of the same compound?
Answer: Its value is 12.6 ng/mL.

— US20060058390A1 (priority 2004, published 2006)
